Data: patent US5939385A, “Transglutaminase cross-linkable polypeptides and methods relating thereto” (ZymoGenetics, Inc., priority 1995, dated 1999)
No end group written: not given here.

Biological target: T1, recombinant Factor XIII (rFXIIIa) (Homo sapiens, UniProt P00488)
T1 construct: made in house
T1 sequence (P00488 39-732 limits assumed): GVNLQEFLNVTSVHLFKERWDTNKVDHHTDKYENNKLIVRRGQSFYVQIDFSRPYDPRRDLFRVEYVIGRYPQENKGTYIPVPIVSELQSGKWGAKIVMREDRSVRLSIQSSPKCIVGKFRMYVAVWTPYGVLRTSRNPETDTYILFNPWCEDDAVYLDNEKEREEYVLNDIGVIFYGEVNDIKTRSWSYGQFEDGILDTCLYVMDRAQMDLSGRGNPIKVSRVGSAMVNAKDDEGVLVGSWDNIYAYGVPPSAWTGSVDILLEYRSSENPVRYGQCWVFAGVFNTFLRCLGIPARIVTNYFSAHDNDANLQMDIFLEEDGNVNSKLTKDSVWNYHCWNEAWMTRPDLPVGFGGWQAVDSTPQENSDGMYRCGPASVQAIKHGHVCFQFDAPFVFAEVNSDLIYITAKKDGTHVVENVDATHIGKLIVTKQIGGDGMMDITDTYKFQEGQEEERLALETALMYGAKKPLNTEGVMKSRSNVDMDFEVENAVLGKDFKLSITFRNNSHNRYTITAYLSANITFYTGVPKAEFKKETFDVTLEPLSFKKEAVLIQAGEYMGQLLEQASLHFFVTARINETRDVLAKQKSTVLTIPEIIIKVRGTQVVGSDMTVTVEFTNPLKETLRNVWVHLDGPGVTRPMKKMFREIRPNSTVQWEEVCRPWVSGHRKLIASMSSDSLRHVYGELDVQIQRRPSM
Assay: Factor XIII cross-linking assay of test polypeptide substrates (HPLC area % vs time)
Type: biochemical
Settings: for Monomer Consumption d[S]/dt (rate of substrate utilization) / Crosslinking d(2[S-])/dt (rate of monomer incorporation into dimers) / Hydrolysis d[-NH3]/dt (hydrolysis = deamidation): initial rate, 2mM substrate, 40 ug/ml rFXIIIa (preactivated), 2.0 U/ml Thrombin, 2.5 mM CaCl2, pH 7.4; for Monomer Consumption d[S]/dt (rate of substrate utilization): 125 mM NaCl, 50 mM TrisHCl; for Hydrolysis %: share of hydrolysis (deamidation) relative to hydrolysis plus crosslinking, same reaction conditions
Experimental: Polypeptides are screened for the ability to form transglutaminase-catalyzed cross-links using a cross-linking assay as described in more detail below. […] Each reaction receives 50 mM CaCl2 to a final concentration of 2.5 mM. A negative control for each test substrate is also prepared in which the reaction lacks a transglutaminase (e.g., Factor XIII). A positive control of the fibrinogen polypeptide (The-Ile-Gly-Glu-Gly-Gln-Gln-His-His-Leu-[…]-Gln-Ala-Gly-Asp-Val) is used for each set of reactions. The reactions are initiated by the addition of 40 μg/ml of transglutaminase (e.g., recombinant Factor XIII) followed by 0.1 unit of bovine thrombin (Enzyme Research Laboratories, Inc., South Bend, Ind.) to each solution, except the negative controls. The reactions are incubated in a 37° C. water bath. A time course of 10 μl samples are taken from each reaction at 0 minutes, 30 minutes, 60 minutes, 120 minutes and overnight. The reactions are stopped by boiling for one minute. After the reactions are terminated, each sample is diluted to 50 μl with 40 μl of TBS buffer (120 mM NaCl, 50 mM Tris (pH 7.6)) and the samples are prepared for HPLC analysis.
Each sample is chromatographed on a C-18 reverse phase HPLC column (Vydac, Hesperia, Calif. or the like) using a gradient of 0-40% B in 30 minutes (Solvent A: 0.05% trifluoroacetic acid (TFA) in water and Solvent B: 0.045% TFA in 80% acetonitrile, 20% water) on a Hewlett Packard 1090 Series II HPLC or the like. The signal is detected at a wavelength of 215 nm. The area % of each reaction product is collected and plotted versus time to determine the rates of polypeptide utilization dimer formation and multimer formation. A deamidation ratio is determined by dividing the deamidation rate by the dimerization rate.
The ability of the test polypeptides to form Factor XIII-induced multimers, and the susceptibility of the polypeptides to deamidation were assessed using the method described in detail below.
Approximately 0.5 mg of lyophilized polypeptide was dissolved in 50 mM Tris, 125 mM NaCl (pH 7.6) to give a final concentration of 2 mM by weight. […] Each test polypeptide solution received 50 mM CaCl2 to a final concentration of 2.5 mM. For each reaction, a negative control lacking Factor XIII was included. A positive control of the fibrinogen polypeptide Thr-Ile-Gly-Glu-Gly-Gln-Gln-His-His-Leu-Gly-Gly-Ala-Lys-Gln-Ala-Gly-Asp-Val was used for each set of reactions. The reactions were initiated by the addition of 40 μg/ml of recombinant Factor XIII followed by 0.1 unit of bovine thrombin (Enzyme Research Laboratories, Inc.) to each solution, except the negative controls. The reactions were incubated in a 37° C. water bath. Samples of 10 μl were taken from each reaction at 0 minutes, 30 minutes, 60 minutes, 120 minutes and overnight. The reactions were stopped by boiling for one minutes. The samples were diluted to 50 μl TBS buffer (120 mM NaCl, 50 mM Tris (pH 7.6)), and the samples were prepared for HPLC analysis.
Each reaction was chromatographed on a C-18 reverse phase HPLC column (Vydac, Hesperia, Calif., or the like) using a gradient of 0-40% B in 30 minutes (solvent A: 0.05% TFA in water and Solvent B: 0.045% TFA in 80% acetonitrile/20% water) on a Hewlett Packard 1090 Series II HPLC. The signal was detected at a wavelength of 215 nm. The area % of each reaction product was collected and plotted versus time to determine the rates of polypeptide utilization and dimer formation. A deamidation ratio was determined by dividing the deamidation rate by the dimerization rate. […] The abbreviations used in Table 1 are as follows: d[S]/dt indicates the rate of substrate utilization, d[S2 ]/dt indicates the rate of dimer formation and (-NH2 /S2) indicates the relative rates of deamidation to dimerization. The initial rates were normalized to that of the fibrinogen polypeptide Thr-Ile-Gly-Glu-Gly-Gln-Gln-His-His-Leu-Gly-Gly-Ala-Lys-Gln-Ala-Gly-Asp-Val. […]

Substance: GQHHLGGAKQ [-- GQ-- HHLGGAKQ--, Gly-Gln-His-His-Leu-Gly-Gly-Ala-Lys-Gln]
- Monomer Consumption d[S]/dt (rate of substrate utilization): -6.9 uM (monomer)/min
- Crosslinking d(2[S-])/dt (rate of monomer incorporation into dimers): 6.2 uM (monomer)/min
- Hydrolysis d[-NH3]/dt (hydrolysis = deamidation): 0.0 uM (monomer)/min
- Hydrolysis %: 0%

Substance: GVGGQHHLGGAKQVP [GVGGQ-- HHLGGAKQVP]
- Monomer Consumption d[S]/dt (rate of substrate utilization): -9.8 uM (monomer)/min
- Crosslinking d(2[S-])/dt (rate of monomer incorporation into dimers): 7.6 uM (monomer)/min
- Hydrolysis d[-NH3]/dt (hydrolysis = deamidation): 0.0 uM (monomer)/min
- Hydrolysis %: 0%

Substance: TIGEGQHHLGGAKAGDV [TIGEGQ-- HHLGGAK-- AGDV]
- Monomer Consumption d[S]/dt (rate of substrate utilization): -10.0 uM (monomer)/min
- Crosslinking d(2[S-])/dt (rate of monomer incorporation into dimers): 8.8 uM (monomer)/min
- Hydrolysis d[-NH3]/dt (hydrolysis = deamidation): 1.4 uM (monomer)/min
- Hydrolysis %: 14%

Substance: VPGVGLSQSKVGVPGVG [VPGVGLSQSKVGVPGVG]
- Monomer Consumption d[S]/dt (rate of substrate utilization): -32.0 uM (monomer)/min
- Crosslinking d(2[S-])/dt (rate of monomer incorporation into dimers): 15.0 uM (monomer)/min
- Hydrolysis d[-NH3]/dt (hydrolysis = deamidation): 12.5 uM (monomer)/min
- Hydrolysis %: 45%

Substance: GQHHLGGAKA [-- GQ-- HHLGGAK-- A--]
- Monomer Consumption d[S]/dt (rate of substrate utilization): -2.4 uM (monomer)/min
- Crosslinking d(2[S-])/dt (rate of monomer incorporation into dimers): 1.8 uM (monomer)/min
- Hydrolysis d[-NH3]/dt (hydrolysis = deamidation): 0.8 uM (monomer)/min
- Hydrolysis %: 31%

Substance: VGQHHLGGAKVPG [VGQ-- HHLGGAKVPG]
- Monomer Consumption d[S]/dt (rate of substrate utilization): -18.0 uM (monomer)/min
- Crosslinking d(2[S-])/dt (rate of monomer incorporation into dimers): 16.2 uM (monomer)/min
- Hydrolysis d[-NH3]/dt (hydrolysis = deamidation): 0.0 uM (monomer)/min
- Hydrolysis %: 0%

Substance: LSQSKVG [LSQSKVG]
- Monomer Consumption d[S]/dt (rate of substrate utilization): -5.2 uM (monomer)/min
- Crosslinking d(2[S-])/dt (rate of monomer incorporation into dimers): 6.8 uM (monomer)/min
- Hydrolysis d[-NH3]/dt (hydrolysis = deamidation): 1.2 uM (monomer)/min
- Hydrolysis %: 15%

Substance: VGGQHHLGGAKQVPG [VGGQ-- HHLGGAKQVPG]
- Monomer Consumption d[S]/dt (rate of substrate utilization): 11.0 uM (monomer)/min
- Crosslinking d(2[S-])/dt (rate of monomer incorporation into dimers): 11.0 uM (monomer)/min
- Hydrolysis d[-NH3]/dt (hydrolysis = deamidation): 0.0 uM (monomer)/min
- Hydrolysis %: 0%

Substance: GQHHLGGAKQG [GQ-- HHLGGAKQG]
- Monomer Consumption d[S]/dt (rate of substrate utilization): -4.4 uM (monomer)/min
- Crosslinking d(2[S-])/dt (rate of monomer incorporation into dimers): 4.4 uM (monomer)/min
- Hydrolysis d[-NH3]/dt (hydrolysis = deamidation): 0.0 uM (monomer)/min
- Hydrolysis %: 0%

Substance: TIGEGQHHLGAKQAGDV [TIGEGQ-- HHLG-- AKQAGDV]
- Monomer Consumption d[S]/dt (rate of substrate utilization): -7.0 uM (monomer)/min
- Crosslinking d(2[S-])/dt (rate of monomer incorporation into dimers): 4.0 uM (monomer)/min
- Hydrolysis d[-NH3]/dt (hydrolysis = deamidation): 3.0 uM (monomer)/min
- Hydrolysis %: 43%

Substance: GEGQHHLGGAKQAG [-- GEGQ-- HHLGGAKQAG--]
- Monomer Consumption d[S]/dt (rate of substrate utilization): -13.1 uM (monomer)/min
- Crosslinking d(2[S-])/dt (rate of monomer incorporation into dimers): 11.2 uM (monomer)/min
- Hydrolysis d[-NH3]/dt (hydrolysis = deamidation): 0.4 uM (monomer)/min
- Hydrolysis %: 3%

Substance: VPGVGQHHLGGAKVPGVG [VPGVGQ-- HHLGGAKVPGVG]
- Monomer Consumption d[S]/dt (rate of substrate utilization): -20.8 uM (monomer)/min
- Crosslinking d(2[S-])/dt (rate of monomer incorporation into dimers): 15.8 uM (monomer)/min
- Hydrolysis d[-NH3]/dt (hydrolysis = deamidation): 1.8 uM (monomer)/min
- Hydrolysis %: 10%

Substance: TIGEGQHHLGGAKQAGDV [TIGEGQ-- HHLGGAKQAGDV]
- Monomer Consumption d[S]/dt (rate of substrate utilization): -12.8 uM (monomer)/min
- Crosslinking d(2[S-])/dt (rate of monomer incorporation into dimers): 11.4 uM (monomer)/min
- Hydrolysis d[-NH3]/dt (hydrolysis = deamidation): 0.6 uM (monomer)/min
- Hydrolysis %: 5%

Substance: TIGEGQHHLGAKQAGDV [TIGEGQ-- HHL-- GAKQAGDV]
- Monomer Consumption d[S]/dt (rate of substrate utilization): -8.4 uM (monomer)/min
- Crosslinking d(2[S-])/dt (rate of monomer incorporation into dimers): 3.6 uM (monomer)/min
- Hydrolysis d[-NH3]/dt (hydrolysis = deamidation): 5.4 uM (monomer)/min
- Hydrolysis %: 60%

Substance: EGQHHLGGAKQA [-- EGQ-- HHLGGAKQA--]
- Monomer Consumption d[S]/dt (rate of substrate utilization): -10.8 uM (monomer)/min
- Crosslinking d(2[S-])/dt (rate of monomer incorporation into dimers): 9.8 uM (monomer)/min
- Hydrolysis d[-NH3]/dt (hydrolysis = deamidation): 0.0 uM (monomer)/min
- Hydrolysis %: 0%

Substance: TIGEGQQHHLGGAKQAGDV [TIGEGQQHHLGGAKQAGDV, Thr-Ile-Gly-Glu-Gly-Gln-Gln-His-His-Leu-Gly-Gly-Ala-Lys-Gln-Ala-Gly-Asp-Val, reference compound]
- Monomer Consumption d[S]/dt (rate of substrate utilization): -20.0 uM (monomer)/min
- Crosslinking d(2[S-])/dt (rate of monomer incorporation into dimers): 16.4 uM (monomer)/min
- Hydrolysis d[-NH3]/dt (hydrolysis = deamidation): 5.2 uM (monomer)/min
- Hydrolysis %: 24%

Substance: GQHHLGAKQ [-- GQ-- HHLG-- AKQ--]
- Monomer Consumption d[S]/dt (rate of substrate utilization): -4.7 uM (monomer)/min
- Crosslinking d(2[S-])/dt (rate of monomer incorporation into dimers): 4.9 uM (monomer)/min
- Hydrolysis d[-NH3]/dt (hydrolysis = deamidation): 0.0 uM (monomer)/min
- Hydrolysis %: 0%

Substance: GVGVPGQHHLGGAKQGVGVP [GVGVPGQ-- HHLGGAKQGVGVP]
- Monomer Consumption d[S]/dt (rate of substrate utilization): -7.3 uM (monomer)/min
- Crosslinking d(2[S-])/dt (rate of monomer incorporation into dimers): 5.6 uM (monomer)/min
- Hydrolysis d[-NH3]/dt (hydrolysis = deamidation): 1.7 uM (monomer)/min
- Hydrolysis %: 23%

Substance: GQHHLGAKQA [-- GQ-- HHL-- GAKQA--]
- Monomer Consumption d[S]/dt (rate of substrate utilization): -8.4 uM (monomer)/min
- Crosslinking d(2[S-])/dt (rate of monomer incorporation into dimers): 8.4 uM (monomer)/min
- Hydrolysis d[-NH3]/dt (hydrolysis = deamidation): -0.2 uM (monomer)/min
- Hydrolysis %: 0%

Substance: EGQHHLGAKQAG [-- EGQ-- HHL-- GAKQAG--]
- Monomer Consumption d[S]/dt (rate of substrate utilization): -6.0 uM (monomer)/min
- Crosslinking d(2[S-])/dt (rate of monomer incorporation into dimers): 3.0 uM (monomer)/min
- Hydrolysis d[-NH3]/dt (hydrolysis = deamidation): 5.4 uM (monomer)/min
- Hydrolysis %: 64%

Substance: IGEGQHHLGGAKQAGD [-- IGEGQ-- HHLGGAKQAGD--]
- Monomer Consumption d[S]/dt (rate of substrate utilization): -12.5 uM (monomer)/min
- Crosslinking d(2[S-])/dt (rate of monomer incorporation into dimers): 14.1 uM (monomer)/min
- Hydrolysis d[-NH3]/dt (hydrolysis = deamidation): -1.4 uM (monomer)/min
- Hydrolysis %: 0%
